The values that follow come from patent US20090238799A1, “Conditionally-Immortalised Pancreatic Cells” (priority 2005, published 2009).

In assay [1] the test system is cells containing the cmyERTam construct. In words: Proliferation of cells containing the cmyERTam construct. It counts as cell-based, human. Conditions: removal promotes differentiation. As to the method:
Before use, the following growth factors (GF) were added to HPM: 20 ng/ml epidermal growth factor (EGF) and 50 nM Gastrin I. After infection the pancreas cells were cultured in the presence of a supplement: 100 nM 4-Hydroxytamoxifen (4OHT).
Pancreas cells or preselected pancreas cell aggregates were transferred on fibronectin coated or uncoated vessels. Pancreatic cells were infected with virus supernatant and 4-8 μg/ml hexadimethrine bromide. After 8-16 hours of infection, fresh HPM was added and the infection cycle was repeated the next day. The infection was done in 10 cm Petri dishes with cell confluency ranging from 40% to 70%. After infection 4OHT was added to the medium. After 2 days from completed infection the cells were passaged for expansion and/or selection.

In assay [2] the test system is Telomerase Reverse Transcriptase. In words: Quantitative PCR of c-myc gene target induction in c-mycERTAM pancreatic cells. It counts as cell-based, human. As to conditions: pancreatic cells with c-mycERTAM, FIG. 4. As to the method:
For the PCR of the c-myc-ER and insulin, the titanium taq PCR kit (Clontech laboratories) was used, see Table 2 for the primers used. The PCR reaction conditions were standard. The PCR machine used was GeneAmp PCR system 2700. For analysis, 15 μl of the PCR product was mixed with 5 μl 6× loading dye solution (MBI R0611) and loaded to a gel. A 100 bp DNA ladder (MBI SM0241), 6 μl, containing 3 μg DNA was also loaded. The gel was a 2% agarose gel consisting of: TAE buffer (Invitrogen 15558-034), agarose 2%, ethidium bromide, 267 μg/ml. The gel was run with an electrophoresis power supply E835 (Consort) in a tray HU13 (Jencons) and finally scanned with Fluor-S multimager (Biorad) and analysed with the software Quantity One (Biorad). For quantitative PCR, total RNA is extracted from cell pellets using Trizol (Invitrogen) and RNeasy (Qiagen) spin-columns, prior to reverse-transcription with Superscript II (Invitrogen) to synthesize the first strand of cDNA, which can be used as a template in quantitative PCR. Each gene transcript is detected with a sequence-specific primer-probe combination which accumulates a fluorescent signal during each PCR cycle, detected using a Lightcycler 480 instrument (Roche); the transcription of each gene is normalized against loading-level by assessing a number of house-keeping genes, and expressed as a proportion of a calibrator sample.

4-hydroxytamoxifen [4-OHT]: the “effect of addition on proliferation” value in assay [1] is reported as “promotes proliferation”. Besides, the “Telomerase Reverse Transcriptase (hTERT) induction” value in assay [2] was “induction”.
